Test systems include DU-145 prostate; HCT-116 colon; IGROV1 ovarian; MCF7 breast; MOLT-4 leukemia; NCI-H522 lung; OVCAR-3 ovarian; OVCAR-5 ovarian; SF-268 CNS; SK-MEL-2 melanoma.
Common to all, as to test: NCI anticancer screen, dose series, 48 h

Several values for one entry are separate records, joined by “and”; a condition that tells them apart may be missing. Equal values may be shown once.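 In this assay, cells in 96-well plates receive the compound at five concentrations for 48 hours. Endpoints are linearly interpolated between the surrounding concentrations. The concentration for 50% growth inhibition is given as GI50. The concentration for full growth arrest is given as TGI.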

For the molecule `COc1ccc(/C=C/C(=O)c2ccc(O)c(CN3CCN(c4cc5c(cc4F)c(=O)c(C(=O)O)cn5C4CC4)CC3)c2)cc1`, the GI50 with DU-145 prostate is 1.47 µM; in the assay with HCT-116 colon it was 0.368 µM; in the assay with IGROV1 ovarian it was 1.27 µM; in the assay on MCF7 breast, 0.456 µM; in the assay with MOLT-4 leukemia, 5.29 µM; in the assay on NCI-H522 lung, 1.98 µM. In addition, the GI50 was 1.97 µM in the assay on OVCAR-3 ovarian, 4.61 µM in the assay with OVCAR-5 ovarian, 2.32 µM in the assay with SF-268 CNS and 2.87 µM with SK-MEL-2 melanoma. Further, the TGI was more than 100 µM in the assay with DU-145 prostate; more than 100 µM in the assay on HCT-116 colon; more than 100 µM with IGROV1 ovarian; more than 100 µM in the assay with MCF7 breast; more than 100 µM with MOLT-4 leukemia; 28.7 µM in the assay with NCI-H522 lung. The TGI in the assay on OVCAR-3 ovarian was more than 100 µM; in the assay on OVCAR-5 ovarian it was more than 100 µM; in the assay with SF-268 CNS, more than 100 µM; in the assay with SK-MEL-2 melanoma, 21 µM.

Take `CN[C@H](C#Cc1c(F)ccc2c1/C(=C/c1[nH]ccc1OC)C(=O)N2)CO`: the GI50 is 0.411 µM in the assay on DU-145 prostate; 0.136 µM with HCT-116 colon; 0.682 µM with IGROV1 ovarian; 0.569 µM in the assay with MCF7 breast; 0.386 µM in the assay on MOLT-4 leukemia; 0.659 µM in the assay with NCI-H522 lung. Also, the GI50 with OVCAR-3 ovarian was 0.869 µM; with OVCAR-5 ovarian, 0.917 µM; with SF-268 CNS, 0.509 µM; with SK-MEL-2 melanoma it was 0.199 µM. Also, the TGI in the assay with DU-145 prostate is 3 µM; with HCT-116 colon it was 5.21 µM; with IGROV1 ovarian, 3.32 µM; in the assay with MCF7 breast, 3.68 µM; with MOLT-4 leukemia, 3.8 µM; in the assay on NCI-H522 lung, 2.45 µM. For the same molecule, the TGI in the assay on OVCAR-3 ovarian worked out at 3.1 µM; with OVCAR-5 ovarian, 3.71 µM; with SF-268 CNS, 2.21 µM; in the assay on SK-MEL-2 melanoma, 0.749 µM.

For `O=c1ccn(C2CC(O)C(CO)O2)c(=O)[nH]1` (stereo not given), the GI50 in the assay with DU-145 prostate is more than 5000 µM; with HCT-116 colon, more than 5000 µM; in the assay on IGROV1 ovarian, more than 5000 µM; in the assay on MCF7 breast, 3000 µM; in the assay on MOLT-4 leukemia, 548 µM and 227 µM; in the assay on NCI-H522 lung, more than 5000 µM. In addition, the GI50 in the assay with OVCAR-3 ovarian, in the assay with OVCAR-5 ovarian, with SF-268 CNS and in the assay with SK-MEL-2 melanoma was more than 5000 µM in each case. Besides, the TGI in the assay with DU-145 prostate, with HCT-116 colon, in the assay on IGROV1 ovarian, in the assay with MCF7 breast, with MOLT-4 leukemia and in the assay with NCI-H522 lung was more than 5000 µM throughout. Also, the TGI in the assay on OVCAR-3 ovarian, with OVCAR-5 ovarian, in the assay on SF-268 CNS and with SK-MEL-2 melanoma was more than 5000 µM in each case.

Regarding `COc1cc2ccccc2oc1=O`, the TGI with DU-145 prostate, in the assay with HCT-116 colon, with IGROV1 ovarian, in the assay on MCF7 breast, in the assay with MOLT-4 leukemia and in the assay with NCI-H522 lung was more than 100 µM each time. Moreover, the TGI with OVCAR-3 ovarian, in the assay on OVCAR-5 ovarian, in the assay on SF-268 CNS and in the assay on SK-MEL-2 melanoma was more than 100 µM each time.

Take `C=C1/C(=C\C=C2/CCC[C@]3(C)[C@@H]([C@H](C)CCCC(C)(C)O)CC[C@@H]23)C[C@@H](OC(=O)CBr)C[C@@H]1O`: the GI50 with DU-145 prostate is 12.4 µM; with HCT-116 colon it was 2.22 µM; with IGROV1 ovarian, 0.0604 µM; with MCF7 breast it was 1.38 µM; in the assay on MOLT-4 leukemia, 0.371 µM; in the assay on NCI-H522 lung it was 0.255 µM. In addition, the GI50 in the assay with OVCAR-3 ovarian is 0.395 µM; with OVCAR-5 ovarian, 1.55 µM; in the assay on SF-268 CNS it was 2.26 µM; with SK-MEL-2 melanoma, 9.75 µM. Moreover, the TGI worked out at 26.6 µM in the assay with DU-145 prostate; 5.9 µM in the assay on HCT-116 colon; 0.15 µM in the assay with IGROV1 ovarian; 5.74 µM in the assay on MCF7 breast; 2.05 µM with MOLT-4 leukemia; 0.83 µM with NCI-H522 lung. The TGI came to 1.23 µM in the assay on OVCAR-3 ovarian, 19.3 µM with OVCAR-5 ovarian, 6.1 µM in the assay on SF-268 CNS and 28.6 µM in the assay with SK-MEL-2 melanoma.

For `COc1ccc(-c2nc(-c3ccccc3)c(-c3ccccc3)[nH]2)cc1OC1CCCC1`, the GI50 with DU-145 prostate was more than 100 µM; in the assay with HCT-116 colon, more than 100 µM; with IGROV1 ovarian, more than 100 µM; with MCF7 breast, more than 100 µM; with MOLT-4 leukemia, 71.2 µM; in the assay on NCI-H522 lung it was 6.11 µM. Also, the GI50 in the assay with OVCAR-3 ovarian, with OVCAR-5 ovarian, in the assay on SF-268 CNS and in the assay with SK-MEL-2 melanoma was more than 100 µM each time. In addition, the TGI with DU-145 prostate, with HCT-116 colon, in the assay with IGROV1 ovarian, in the assay with MCF7 breast, in the assay with MOLT-4 leukemia and in the assay on NCI-H522 lung was more than 100 µM in each case. In addition, the TGI with OVCAR-3 ovarian, in the assay with OVCAR-5 ovarian, with SF-268 CNS and in the assay on SK-MEL-2 melanoma was more than 100 µM each time.

Take `c1cc2n(n1)CCN2`: the TGI with DU-145 prostate was more than 10000 µM; with HCT-116 colon, more than 10000 µM; in the assay on IGROV1 ovarian, more than 10000 µM; in the assay on MCF7 breast, more than 8650 µM; in the assay with MOLT-4 leukemia, 9880 µM; in the assay on NCI-H522 lung, more than 7740 µM. Besides, the TGI is more than 10000 µM in the assay on OVCAR-3 ovarian, more than 10000 µM in the assay with OVCAR-5 ovarian, 8200 µM in the assay on SF-268 CNS and more than 7500 µM with SK-MEL-2 melanoma.

As to `C=CCC1(O)c2ccccc2C(=O)c2c(NCCN(CC(=O)OCC)CC(=O)OCC)cccc21` (stereo not given), the GI50 was more than 100 µM with DU-145 prostate; more than 100 µM in the assay with HCT-116 colon; more than 100 µM in the assay with IGROV1 ovarian; more than 100 µM in the assay on MCF7 breast; 75.6 µM in the assay with MOLT-4 leukemia; more than 100 µM with NCI-H522 lung. Also, the GI50 in the assay with OVCAR-3 ovarian, with OVCAR-5 ovarian, in the assay on SF-268 CNS and with SK-MEL-2 melanoma was more than 100 µM in each case. Moreover, the TGI in the assay on DU-145 prostate, with HCT-116 colon, with IGROV1 ovarian, in the assay on MCF7 breast, in the assay on MOLT-4 leukemia and with NCI-H522 lung was more than 100 µM throughout. Moreover, the TGI in the assay with OVCAR-3 ovarian, with OVCAR-5 ovarian, with SF-268 CNS and in the assay with SK-MEL-2 melanoma was more than 100 µM throughout.

Values taken from PubChem BioAssay (NCI).
